US20260356819A1, “OXOISOINDOLINYL-SUBSTITUTED […] DERIVATIVE AND USE THEREOF” (GLUETACS THERAPEUTICS (SHANGHAI) CO., LTD., priority 2023, published 2026)

Columns and labels:
Assay type in all cases: cell-based
Conditions in all cases: compounds at 50 nM and 500 nM
WEE1 = biological target: T1, WEE1 (Homo sapiens, UniProt P30291+Q96SW2); assay: Western blot degradation of WEE1 in hPBMCs (24 h)
T1 construct: The supernatant was aspirated as the extracted total cell protein; endogenous in cells; host or cells: human peripheral blood mononuclear cells (hPBMCs)
Procedure, shortened: (§1)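 hPBMCs (1×10^6 cells/mL) exposed to compound at 50 nM and 500 nM for 24 h, DMSO as reference. Lysates run on SDS-PAGE and immunoblotted. Band grayscale normalized to internal control gives % protein remaining; DC50 from fitted concentration-response of band intensity versus DMSO.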

IKZF1 = biological target: T2, IKZF1 (Homo sapiens, UniProt Q13422+Q96SW2); assay: Western blot degradation of IKZF1 in hPBMCs (24 h)
T2 construct: The supernatant was aspirated as the extracted total cell protein; endogenous in cells; host or cells: human peripheral blood mononuclear cells (hPBMCs)
T2 sequence (Q13422 whole entry): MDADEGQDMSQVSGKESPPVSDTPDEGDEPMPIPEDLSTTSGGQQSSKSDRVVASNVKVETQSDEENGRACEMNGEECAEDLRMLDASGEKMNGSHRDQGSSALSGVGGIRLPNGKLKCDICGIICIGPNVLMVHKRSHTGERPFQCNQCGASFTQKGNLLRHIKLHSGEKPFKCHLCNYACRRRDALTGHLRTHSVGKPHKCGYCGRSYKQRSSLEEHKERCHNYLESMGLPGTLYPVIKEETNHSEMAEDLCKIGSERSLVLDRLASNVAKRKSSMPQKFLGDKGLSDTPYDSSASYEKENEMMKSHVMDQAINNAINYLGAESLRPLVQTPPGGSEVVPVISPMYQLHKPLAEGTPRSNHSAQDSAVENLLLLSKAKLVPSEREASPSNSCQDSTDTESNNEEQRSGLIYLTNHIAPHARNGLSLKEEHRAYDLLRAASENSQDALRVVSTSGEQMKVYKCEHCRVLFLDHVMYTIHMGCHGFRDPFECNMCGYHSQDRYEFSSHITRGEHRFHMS
T2 sequence (Q96SW2 whole entry): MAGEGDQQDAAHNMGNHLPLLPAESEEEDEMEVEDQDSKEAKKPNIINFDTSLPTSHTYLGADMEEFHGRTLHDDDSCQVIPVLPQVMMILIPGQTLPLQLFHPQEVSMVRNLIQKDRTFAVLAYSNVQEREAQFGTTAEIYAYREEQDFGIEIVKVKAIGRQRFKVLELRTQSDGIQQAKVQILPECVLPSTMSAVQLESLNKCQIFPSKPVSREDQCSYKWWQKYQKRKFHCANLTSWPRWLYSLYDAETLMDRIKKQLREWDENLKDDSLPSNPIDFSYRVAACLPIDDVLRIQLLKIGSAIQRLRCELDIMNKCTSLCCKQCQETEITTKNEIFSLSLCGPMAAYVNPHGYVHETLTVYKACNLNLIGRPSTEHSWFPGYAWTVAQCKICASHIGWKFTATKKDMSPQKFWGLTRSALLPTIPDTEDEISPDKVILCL
T2 sequence (Q16531 whole entry partner): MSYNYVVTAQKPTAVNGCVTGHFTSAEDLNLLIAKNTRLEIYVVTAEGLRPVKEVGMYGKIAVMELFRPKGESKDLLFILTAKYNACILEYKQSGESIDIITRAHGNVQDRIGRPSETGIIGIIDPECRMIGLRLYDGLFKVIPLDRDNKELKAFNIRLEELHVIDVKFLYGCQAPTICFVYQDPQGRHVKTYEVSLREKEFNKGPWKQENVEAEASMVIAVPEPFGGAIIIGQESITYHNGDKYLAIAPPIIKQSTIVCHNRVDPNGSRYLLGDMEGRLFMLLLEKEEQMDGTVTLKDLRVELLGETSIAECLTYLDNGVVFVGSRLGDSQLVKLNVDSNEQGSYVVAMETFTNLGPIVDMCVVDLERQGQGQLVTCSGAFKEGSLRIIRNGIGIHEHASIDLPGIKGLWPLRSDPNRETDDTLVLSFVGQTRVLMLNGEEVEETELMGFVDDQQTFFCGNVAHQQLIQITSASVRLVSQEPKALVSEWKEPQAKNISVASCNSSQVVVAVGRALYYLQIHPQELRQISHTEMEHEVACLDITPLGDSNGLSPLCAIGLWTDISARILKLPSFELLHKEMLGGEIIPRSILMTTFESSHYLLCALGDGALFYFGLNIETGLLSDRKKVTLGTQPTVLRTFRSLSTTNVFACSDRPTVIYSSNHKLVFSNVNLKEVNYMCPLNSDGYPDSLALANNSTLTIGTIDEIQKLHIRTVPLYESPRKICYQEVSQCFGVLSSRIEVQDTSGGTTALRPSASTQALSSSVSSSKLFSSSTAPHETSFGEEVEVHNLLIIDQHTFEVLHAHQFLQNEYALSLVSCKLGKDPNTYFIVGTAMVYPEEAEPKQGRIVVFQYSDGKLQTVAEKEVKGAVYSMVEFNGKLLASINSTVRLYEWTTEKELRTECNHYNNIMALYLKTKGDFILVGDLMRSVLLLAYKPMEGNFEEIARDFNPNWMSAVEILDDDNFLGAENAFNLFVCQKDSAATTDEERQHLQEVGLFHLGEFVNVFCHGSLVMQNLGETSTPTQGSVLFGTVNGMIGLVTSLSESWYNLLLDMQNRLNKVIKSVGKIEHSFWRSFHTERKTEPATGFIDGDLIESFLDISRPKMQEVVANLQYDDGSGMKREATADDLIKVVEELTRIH
Procedure, shortened: as §1

IKZF2 = biological target: T3, IKZF2 (Homo sapiens, UniProt Q96SW2+Q9UKS7); assay: Western blot degradation of IKZF2 in hPBMCs (24 h)
T3 construct: The supernatant was aspirated as the extracted total cell protein; endogenous in cells; host or cells: human peripheral blood mononuclear cells (hPBMCs)
T3 sequence (Q9UKS7 whole entry): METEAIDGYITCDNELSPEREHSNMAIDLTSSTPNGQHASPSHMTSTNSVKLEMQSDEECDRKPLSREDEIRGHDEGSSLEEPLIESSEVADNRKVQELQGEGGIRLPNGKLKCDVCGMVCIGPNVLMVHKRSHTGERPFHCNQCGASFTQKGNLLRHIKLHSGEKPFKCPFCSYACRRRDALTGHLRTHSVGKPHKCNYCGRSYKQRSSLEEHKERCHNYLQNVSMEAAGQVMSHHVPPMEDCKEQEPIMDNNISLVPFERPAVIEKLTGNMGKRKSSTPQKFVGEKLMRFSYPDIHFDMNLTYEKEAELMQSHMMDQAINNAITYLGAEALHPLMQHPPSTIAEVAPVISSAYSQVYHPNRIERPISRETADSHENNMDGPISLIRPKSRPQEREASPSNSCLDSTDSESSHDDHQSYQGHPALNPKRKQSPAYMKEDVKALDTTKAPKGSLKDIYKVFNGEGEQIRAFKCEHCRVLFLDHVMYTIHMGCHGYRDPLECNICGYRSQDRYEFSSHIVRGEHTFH
T3 sequence (Q96SW2 whole entry): as the sequence (Q96SW2 whole entry) above
T3 sequence (Q16531 whole entry partner): as the sequence (Q16531 whole entry partner) above
Procedure, shortened: as §1

IKZF3 = biological target: T4, IKZF3 (Homo sapiens, UniProt Q96SW2+Q9UKT9); assay: Western blot degradation of IKZF3 in hPBMCs (24 h)
T4 construct: The supernatant was aspirated as the extracted total cell protein; endogenous in cells; host or cells: human peripheral blood mononuclear cells (hPBMCs)
T4 sequence (Q9UKT9 whole entry): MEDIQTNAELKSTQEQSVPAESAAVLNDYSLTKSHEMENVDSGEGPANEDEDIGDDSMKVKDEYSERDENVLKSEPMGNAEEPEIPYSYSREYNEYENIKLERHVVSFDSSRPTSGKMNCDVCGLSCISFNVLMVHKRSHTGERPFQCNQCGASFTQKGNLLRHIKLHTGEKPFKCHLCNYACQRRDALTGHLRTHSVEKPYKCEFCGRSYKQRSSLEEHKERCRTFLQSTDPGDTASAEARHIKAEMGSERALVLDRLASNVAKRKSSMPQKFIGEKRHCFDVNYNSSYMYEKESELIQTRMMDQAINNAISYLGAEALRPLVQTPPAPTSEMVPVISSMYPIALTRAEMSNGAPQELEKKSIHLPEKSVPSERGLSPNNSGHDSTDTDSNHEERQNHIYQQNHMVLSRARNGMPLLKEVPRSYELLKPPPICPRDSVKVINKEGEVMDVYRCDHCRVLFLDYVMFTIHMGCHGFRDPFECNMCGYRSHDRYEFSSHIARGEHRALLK
T4 sequence (Q96SW2 whole entry): as the sequence (Q96SW2 whole entry) above
T4 sequence (Q16531 whole entry partner): as the sequence (Q16531 whole entry partner) above
Procedure, shortened: as §1

GSPT1 = biological target: T5, GSPT1 (Homo sapiens, UniProt P15170+Q96SW2); assay: Western blot degradation of GSPT1 in hPBMCs (24 h)
T5 construct: The supernatant was aspirated as the extracted total cell protein; endogenous in cells; host or cells: human peripheral blood mononuclear cells (hPBMCs)
T5 sequence (P15170 whole entry): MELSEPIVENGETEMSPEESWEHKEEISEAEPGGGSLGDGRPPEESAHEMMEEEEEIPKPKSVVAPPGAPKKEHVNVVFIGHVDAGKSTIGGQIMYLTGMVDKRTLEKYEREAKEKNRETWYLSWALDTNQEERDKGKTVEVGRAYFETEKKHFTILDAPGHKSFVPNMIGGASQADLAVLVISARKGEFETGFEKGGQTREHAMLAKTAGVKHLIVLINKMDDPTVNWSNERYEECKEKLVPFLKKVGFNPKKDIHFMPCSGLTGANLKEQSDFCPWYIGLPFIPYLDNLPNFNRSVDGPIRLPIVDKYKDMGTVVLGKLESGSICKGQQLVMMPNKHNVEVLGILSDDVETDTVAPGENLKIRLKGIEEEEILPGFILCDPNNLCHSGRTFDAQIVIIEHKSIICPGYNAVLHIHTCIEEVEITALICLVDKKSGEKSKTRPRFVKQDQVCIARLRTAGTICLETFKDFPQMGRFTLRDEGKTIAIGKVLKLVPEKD
T5 sequence (Q96SW2 whole entry): as the sequence (Q96SW2 whole entry) above
T5 sequence (Q16531 whole entry partner): as the sequence (Q16531 whole entry partner) above
Procedure, shortened: as §1

CK1α = biological target: T6, CK1α (Homo sapiens, UniProt P48729+Q96SW2); assay: Western blot degradation of CK1α in hPBMCs (24 h)
T6 construct: The supernatant was aspirated as the extracted total cell protein; endogenous in cells; host or cells: human peripheral blood mononuclear cells (hPBMCs)
T6 sequence (P48729 whole entry): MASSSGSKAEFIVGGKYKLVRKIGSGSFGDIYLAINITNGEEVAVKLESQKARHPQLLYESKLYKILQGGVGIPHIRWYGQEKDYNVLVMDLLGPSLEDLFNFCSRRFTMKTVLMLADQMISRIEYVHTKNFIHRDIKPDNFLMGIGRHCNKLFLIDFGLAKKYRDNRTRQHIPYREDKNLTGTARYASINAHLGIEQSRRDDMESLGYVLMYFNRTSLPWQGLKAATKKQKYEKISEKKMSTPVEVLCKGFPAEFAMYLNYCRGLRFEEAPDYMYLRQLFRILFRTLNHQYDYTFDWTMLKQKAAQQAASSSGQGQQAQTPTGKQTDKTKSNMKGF
T6 sequence (Q96SW2 whole entry): as the sequence (Q96SW2 whole entry) above
T6 sequence (Q16531 whole entry partner): as the sequence (Q16531 whole entry partner) above
Procedure, shortened: as §1

SMILES | WEE1 substrate protein remaining % (WEE1) | IKZF1 substrate protein remaining % (IKZF1) | IKZF2 substrate protein remaining % (IKZF2) | IKZF3 substrate protein remaining % (IKZF3) | GSPT1 substrate protein remaining % (GSPT1) | CK1α substrate protein remaining % (CK1α)
O=C1CCN(N2C(=O)c3ccc(CN4CCN(c5ccccc5)CC4)cc3C2=O)C(=O)N1 [GT-06719, 2-(2,4-dioxotetrahydropyrimidin-1(2H)-yl)-5-((4-phenylpiperazin-1-yl)methyl)isoindoline-1,3-dione] | B (80%< substrate protein remaining % ≤100%) | B (80%< substrate protein remaining % ≤100%) | B (80%< substrate protein remaining % ≤100%) | A (0% ≤ substrate protein remaining % ≤80%) | B (80%< substrate protein remaining % ≤100%) | B (80%< substrate protein remaining % ≤100%)
COc1ccccc1N1CCN(Cc2ccc3c(c2)C(=O)N(N2CCC(=O)NC2=O)C3=O)CC1 [GT-06720, 2-(2,4-dioxotetrahydropyrimidin-1(2H)-yl)-5-((4-(2-methoxyphenyl)piperazin-1-yl)methyl)isoindoline-1,3-dione] | B (80%< substrate protein remaining % ≤100%) | B (80%< substrate protein remaining % ≤100%) | B (80%< substrate protein remaining % ≤100%) | A (0% ≤ substrate protein remaining % ≤80%) | B (80%< substrate protein remaining % ≤100%) | B (80%< substrate protein remaining % ≤100%)
COc1cccc(N2CCN(Cc3ccc4c(c3)C(=O)N(N3CCC(=O)NC3=O)C4=O)CC2)c1 [GT-06721, 2-(2,4-dioxotetrahydropyrimidin-1(2H)-yl)-5-((4-(3-methoxyphenyl)piperazin-1-yl)methyl)isoindoline-1,3-dione] | B (80%< substrate protein remaining % ≤100%) | A (0% ≤ substrate protein remaining % ≤80%) | A (0% ≤ substrate protein remaining % ≤80%) | A (0% ≤ substrate protein remaining % ≤80%) | B (80%< substrate protein remaining % ≤100%) | B (80%< substrate protein remaining % ≤100%)
O=C1CCN(N2C(=O)c3ccc(CN4CCN(c5cccc(Br)c5)CC4)cc3C2=O)C(=O)N1 [GT-06722, 5-((4-(3-bromophenyl)piperazin-1-yl)methyl)-2-(2,4-dioxotetrahydropyrimidin-1(2H)-yl)isoindoline-1,3-dione] | A (0% ≤ substrate protein remaining % ≤80%) | A (0% ≤ substrate protein remaining % ≤80%) | B (80%< substrate protein remaining % ≤100%) | A (0% ≤ substrate protein remaining % ≤80%) | B (80%< substrate protein remaining % ≤100%) | A (0% ≤ substrate protein remaining % ≤80%)
O=C1CCN(N2C(=O)c3ccc(CN4CCN(c5cccc(F)c5)CC4)cc3C2=O)C(=O)N1 [GT-06724, 2-(2,4-dioxotetrahydropyrimidin-1(2H)-yl)-5-((4-(3-fluorophenyl)piperazin-1-yl)methyl)isoindoline-1,3-dione] | A (0% ≤ substrate protein remaining % ≤80%) | A (0% ≤ substrate protein remaining % ≤80%) | B (80%< substrate protein remaining % ≤100%) | B (80%< substrate protein remaining % ≤100%) | B (80%< substrate protein remaining % ≤100%) | B (80%< substrate protein remaining % ≤100%)
O=C1CCN(N2C(=O)c3ccc(CN4CCN(c5ccc(F)cc5)CC4)cc3C2=O)C(=O)N1 [GT-06725, 2-(2,4-dioxotetrahydropyrimidin-1(2H)-yl)-5-((4-(4-fluorophenyl)piperazin-1-yl)methyl)isoindoline-1,3-dione] | B (80%< substrate protein remaining % ≤100%) | A (0% ≤ substrate protein remaining % ≤80%) | B (80%< substrate protein remaining % ≤100%) | B (80%< substrate protein remaining % ≤100%) | B (80%< substrate protein remaining % ≤100%) | B (80%< substrate protein remaining % ≤100%)
O=C1CCN(N2C(=O)c3ccc(CN4CCN(c5ccccc5Cl)CC4)cc3C2=O)C(=O)N1 [GT-06726, 5-((4-(2-chlorophenyl)piperazin-1-yl)methyl)-2-(2,4-dioxotetrahydropyrimidin-1(2H)-yl)isoindoline-1,3-dione] | A (0% ≤ substrate protein remaining % ≤80%) | B (80%< substrate protein remaining % ≤100%) | A (0% ≤ substrate protein remaining % ≤80%) | A (0% ≤ substrate protein remaining % ≤80%) | B (80%< substrate protein remaining % ≤100%) | A (0% ≤ substrate protein remaining % ≤80%)
O=C1CCN(N2C(=O)c3ccc(CN4CCN(c5ccccc5Br)CC4)cc3C2=O)C(=O)N1 [GT-06727, 5-((4-(2-bromophenyl)piperazin-1-yl)methyl)-2-(2,4-dioxotetrahydropyrimidin-1(2H)-yl)isoindoline-1,3-dione] | B (80%< substrate protein remaining % ≤100%) | B (80%< substrate protein remaining % ≤100%) | A (0% ≤ substrate protein remaining % ≤80%) | A (0% ≤ substrate protein remaining % ≤80%) | B (80%< substrate protein remaining % ≤100%) | A (0% ≤ substrate protein remaining % ≤80%)
COc1ccc(N2CCN(Cc3ccc4c(c3)C(=O)N(N3CCC(=O)NC3=O)C4=O)CC2)cc1 [GT-06728, 2-(2,4-dioxotetrahydropyrimidin-1(2H)-yl)-5-((4-(4-methoxyphenyl)piperazin-1-yl)methyl)isoindoline-1,3-dione] | B (80%< substrate protein remaining % ≤100%) | B (80%< substrate protein remaining % ≤100%) | A (0% ≤ substrate protein remaining % ≤80%) | A (0% ≤ substrate protein remaining % ≤80%) | B (80%< substrate protein remaining % ≤100%) | A (0% ≤ substrate protein remaining % ≤80%)
COc1ccc(N2CCN(Cc3ccc4c(c3)CN(N3CCC(=O)NC3=O)C4=O)CC2)cc1 [GT-06767, 1-(5-((4-(4-methoxyphenyl)piperazin-1-yl)methyl)-1-oxoisoindolin-2-yl)dihydropyrimidine-2,4(1H,3H)-dione] | A (0% ≤ substrate protein remaining % ≤80%) | A (0% ≤ substrate protein remaining % ≤80%) | A (0% ≤ substrate protein remaining % ≤80%) | A (0% ≤ substrate protein remaining % ≤80%) | A (0% ≤ substrate protein remaining % ≤80%) | A (0% ≤ substrate protein remaining % ≤80%)
O=C1CCN(N2Cc3cc(CN4CCN(c5ccc(Br)cc5)CC4)ccc3C2=O)C(=O)N1 [GT-06768, 1-(5-((4-(4-bromophenyl)piperazin-1-yl)methyl)-1-oxoisoindolin-2-yl)dihydropyrimidine-2,4(1H,3H)-dione] | A (0% ≤ substrate protein remaining % ≤80%) | B (80%< substrate protein remaining % ≤100%) | B (80%< substrate protein remaining % ≤100%) | A (0% ≤ substrate protein remaining % ≤80%) | A (0% ≤ substrate protein remaining % ≤80%) | A (0% ≤ substrate protein remaining % ≤80%)
Cc1ccccc1N1CCN(Cc2ccc3c(c2)CN(N2CCC(=O)NC2=O)C3=O)CC1 [GT-06769, 1-(1-oxo-5-((4-(o-tolyl)piperazin-1-yl)methyl)isoindolin-2-yl)dihydropyrimidine-2,4(1H,3H)-dione] | A (0% ≤ substrate protein remaining % ≤80%) | B (80%< substrate protein remaining % ≤100%) | A (0% ≤ substrate protein remaining % ≤80%) | A (0% ≤ substrate protein remaining % ≤80%) | A (0% ≤ substrate protein remaining % ≤80%) | A (0% ≤ substrate protein remaining % ≤80%)
